Measured values taken from ChEMBL document CHEMBL3217738, “Preparation of blood-brain barrier-permeable paclitaxel-carrier conjugate and its chemotherapeutic activity in the mouse glioblastoma model” (Medchemcomm, 2011).
The source made the active and inactive calls. The rule behind the calls is not given here.

Legend:
Lung = assay: Drug uptake in lung of C57BL/6 mouse at 115.6 mg/kg, ip after 20 mins by fluorescence microscopy; type: ADME, organism-based; design: dose 115.6 mg/kg, route intraperitoneal; details: in vivo
Brain = assay: Drug uptake in brain of C57BL/6 mouse at 115.6 mg/kg, ip after 20 mins by fluorescence microscopy; type: ADME, organism-based; design: dose 115.6 mg/kg, route intraperitoneal; details: in vivo
Spleen = assay: Drug uptake in spleen of C57BL/6 mouse at 115.6 mg/kg, ip after 20 mins by fluorescence microscopy; type: ADME, organism-based; design: dose 115.6 mg/kg, route intraperitoneal; details: in vivo
Liver = assay: Drug uptake in liver of C57BL/6 mouse at 115.6 mg/kg, ip after 20 mins by fluorescence microscopy; type: ADME, organism-based; design: dose 115.6 mg/kg, route intraperitoneal; details: in vivo
Kidney = assay: Drug uptake in kidney of C57BL/6 mouse at 115.6 mg/kg, ip after 20 mins by fluorescence microscopy; type: ADME, organism-based; design: dose 115.6 mg/kg, route intraperitoneal; details: in vivo
Heart = assay: Drug uptake in heart muscle of C57BL/6 mouse at 115.6 mg/kg, ip after 20 mins by fluorescence microscopy; type: ADME, organism-based, Muscle tissue; design: dose 115.6 mg/kg, route intraperitoneal; details: in vivo
RAW264.7 [1] = assay: Cytotoxicity against mouse RAW264.7 cells assessed as cell viability at 0.1 uM after 48 hrs by MTT assay relative to control; type: functional; details: RAW264.7, 48 h, read-out: Activity
HeLa [2] = assay: Cytotoxicity against human HeLa cells assessed as cell viability at 1 uM after 48 hrs by MTT assay relative to control; type: functional; details: read-out: Activity
HeLa [3] = assay: Cytotoxicity against human HeLa cells assessed as cell viability at 0.1 uM after 48 hrs by MTT assay relative to control; type: functional; details: read-out: Activity
[4] = Antitumor activity against human U87MG cells xenografted in Balb/c nude mouse assessed as reduction in tumor volume at 7.5 mg/kg, po administered twice per week for 2 weeks measured after 4 weeks (reference value: 25 +/- 2.6 mm3); type: functional, U-87MG ATCC
[5] = Cytotoxicity against African green monkey COS7 cells assessed as cell viability at 10 uM after 48 hrs by MTT assay relative to control; type: cell-based, COS-7; details: chlorocebus aethiops, read-out: Activity
[6] = Cytotoxicity against African green monkey COS7 cells assessed as cell viability at 0.1 uM after 48 hrs by MTT assay relative to control; type: cell-based, COS-7; details: chlorocebus aethiops, read-out: Activity
[7] = Antitumor activity against human U87MG cells xenografted in Balb/c nude mouse orthotopic model assessed as reduction in tumor volume at 3.75 mg/kg, po administered twice per week for 2 weeks measured after 4 weeks (reference value: 25 +/- 2.6 mm3); type: functional, U-87MG ATCC
RAW264.7 [8] = assay: Cytotoxicity against mouse RAW264.7 cells assessed as cell viability at 10 uM after 48 hrs by MTT assay relative to control; type: functional; details: RAW264.7, 48 h, read-out: Activity
U-87 MG = assay: Induction of apoptosis in human U87MG cells xenografted in mouse at 3.75 to 7.5 mg/kg, po administered twice per week for 2 weeks measured after 4 weeks by TUNEL-staining based immunohistochemical analysis relative to control; type: functional, organism-based; details: U-87MG ATCC
U-87MG ATCC [9] = assay: Antitumor activity against human U87MG cells xenografted in mouse assessed as tumor growth inhibition by measuring PCNA-positive cells at […] 7.5 mg/kg, po administered twice per week for 2 weeks measured after 4 weeks by immunohistochemical analysis relative to control; type: functional, organism-based
HeLa [10] = assay: Cytotoxicity against human HeLa cells assessed as cell viability at 100 uM after 48 hrs by MTT assay relative to control; type: functional; details: read-out: Activity
RAW264.7 [11] = assay: Cytotoxicity against mouse RAW264.7 cells assessed as cell viability at 1 uM after 48 hrs by MTT assay relative to control; type: functional; details: RAW264.7, 48 h, read-out: Activity
[12] = Cytotoxicity against African green monkey COS7 cells assessed as cell viability at 100 uM after 48 hrs by MTT assay relative to control; type: cell-based, COS-7; details: chlorocebus aethiops, read-out: Activity
HeLa [13] = assay: Cytotoxicity against human HeLa cells assessed as cell viability at 10 uM after 48 hrs by MTT assay relative to control; type: functional; details: read-out: Activity
[14] = Cytotoxicity against African green monkey COS7 cells assessed as cell viability at 1 uM after 48 hrs by MTT assay relative to control; type: cell-based, COS-7; details: chlorocebus aethiops, read-out: Activity
RAW264.7 [15] = assay: Cytotoxicity against mouse RAW264.7 cells assessed as cell viability at 100 uM after 48 hrs by MTT assay relative to control; type: functional; details: RAW264.7, 48 h, read-out: Activity
U-87MG ATCC [16] = assay: Antitumor activity against human U87MG cells xenografted in mouse assessed as decrease in microvessel density in tumor bed by measuring CD31-positive cells at […] 7.5 mg/kg, po administered twice per week for 2 weeks measured after 4 weeks by immunohistochemical analysis relative to control; type: functional, organism-based

With `CC(=O)O[C@H]1C(=O)[C@@]2(C)[C@H]([C@H](OC(=O)c3ccccc3)[C@]3(O)C[C@H](OC(=O)[C@H](OC(=O)CCC(=O)OC[C@H](OC(=O)CCCCCN(CCCNC(=N)N)CCCNC(=N)N)[C@@H](OC(=O)CCCCCN(CCCNC(=N)N)CCCNC(=N)N)[C@H](OC(=O)CCCCCN(CCCNC(=N)N)CCCNC(=N)N)[C@@H](COC(=O)CCCCCNC(=S)Nc4ccc(-c5c6ccc(=O)cc-6oc6cc(O)ccc56)c(C(=O)O)c4)OC(=O)CCCCCN(CCCNC(=N)N)CCCNC(=N)N)[C@@H](NC(=O)c4ccccc4)c4ccccc4)C(C)=C1C3(C)C)[C@]1(OC(C)=O)CO[C@@H]1C[C@@H]2O.Cl` the Drug uptake (Lung) was “Active”, the Drug uptake (Brain) was “Active” and the Drug uptake (Spleen) was “Active”. For the same compound, the Drug uptake (Liver) was “Active”, the Drug uptake (Kidney) was “Active” and the Drug uptake (Heart) was “Active”.

In the case of `CC(=O)O[C@H]1C(=O)[C@@]2(C)[C@H]([C@H](OC(=O)c3ccccc3)[C@]3(O)C[C@H](OC(=O)[C@H](OC(=O)CCC(=O)OC[C@@H](OC(=O)CCCCCN(CCCNC(=N)N)CCCNC(=N)N)[C@@H](OC(=O)CCCCCN(CCCNC(=N)N)CCCNC(=N)N)[C@H](OC(=O)CCCCCN(CCCNC(=N)N)CCCNC(=N)N)[C@H](CO)OC(=O)CCCCCN(CCCNC(=N)N)CCCNC(=N)N)[C@@H](NC(=O)c4ccccc4)c4ccccc4)C(C)=C1C3(C)C)[C@]1(OC(C)=O)CO[C@@H]1C[C@@H]2O.Cl`, the viability at 0.1 µM (RAW264.7 [1]) is reported as 117%, the viability at 1 µM (HeLa [2]) is reported as 78% and the viability at 0.1 µM (HeLa [3]) is reported as 87.4%. For the same compound, the Activity [4] was 4.7 mm3, the viability at 48 h, 10 µM [5] was 94.5% and the viability at 48 h, 0.1 µM [6] was 96.2%. For the same compound, the Activity [7] was 6.1 mm3, the viability at 10 µM (RAW264.7 [8]) was 53.4% and the Activity (U-87 MG) was “Active”. The TGI (U-87MG ATCC [9]) was “Active”, the viability at 100 µM (HeLa [10]) was 3.8% and the viability at 1 µM (RAW264.7 [11]) was 111%. The viability at 48 h, 100 µM [12] was 20.6%, the viability at 10 µM (HeLa [13]) was 83.1% and the viability at 48 h, 1 µM [14] was 92.4%. The viability at 100 µM (RAW264.7 [15]) was 2.6% and the Activity (U-87MG ATCC [16]) was “Active”.

With `CC(=O)O[C@H]1C(=O)[C@@]2(C)[C@H]([C@H](OC(=O)c3ccccc3)[C@]3(O)C[C@H](OC(=O)[C@H](O)[C@@H](NC(=O)c4ccccc4)c4ccccc4)C(C)=C1C3(C)C)[C@]1(OC(C)=O)CO[C@@H]1C[C@@H]2O` [PACLITAXEL] the viability at 0.1 µM (RAW264.7 [1]) was 39.3%, the viability at 1 µM (HeLa [2]) was 86.3% and the viability at 0.1 µM (HeLa [3]) was 76.3%. For the same compound, the Activity [4] was 19.4 mm3, the viability at 48 h, 10 µM [5] was 71.9% and the viability at 48 h, 0.1 µM [6] was 65.4%. It also gave a viability at 10 µM (RAW264.7 [8]) of 49.9%, a viability at 100 µM (HeLa [10]) of 56.5% and a viability at 1 µM (RAW264.7 [11]) of 39.2%. The viability at 48 h, 100 µM [12] was 41.5%, the viability at 10 µM (HeLa [13]) was 96.1% and the viability at 48 h, 1 µM [14] was 66.5%. It also gave a viability at 100 µM (RAW264.7 [15]) of 13.3%.
